From US20100279942A1, “METHODS FOR TREATING MOTOR NEURON DISEASE” (priority 2004, published 2010)

Tests used:
[1] = system: F11 cells transformed with SOD1 mutant (A4T-SOD1, G85R-SOD1, G93R-SOD1) genes; assay: Neuronal cell death test, Trypan blue exclusion assay, F11 cells transformed with SOD1 mutant genes; type: cell-based, rat/mouse hybrid cell; details: for effect of kinase inhibitor on neuroprotective effect of ADNF: 100 nM ADNF, 10 nM wortmannin, 100 μM genistein, 50 μM PD98059, 20 μM SB203580, 1 μM AG490, 5 μM KN93, 10 μM HA1004, 72 hours
Description: F11 cell, the hybrid cell of rat embryonic day 13 (E13) primary cultured neuronal cell with mouse neuroblastoma NTG18 cell, was cultured in Ham's F-12 medium (Life Technologies, Gaithersburg, Md.) containing 18% FBS (Hyclone, Logan, Utah) and antibiotics as previously reported (Platika D, et al., 1985, Proc Natl Acad Sci USA 82: 3499-3503; Yamatsuji T, et al., 1996, Science 272: 1349-1352; Huang P, et al., 2000, Mol Hum Reprod 6: 1069-1078; and Niikura T, et al., 2001, J Neuroscience, 21: 1902-1910).
The F11 cells (7×10^4 cells/well, 6-well plate, 12- to 16-hour culture in Ham's F-12 (18% PBS) medium) were transformed with wild-type or SOD1 mutant (A4T, G85R, and G93R) genes by lipofection (0.5 μg of each SOD1 gene; 1 μl of LipofectAMINE; 2 μl of PLUS Reagent) under serum-free conditions for 3 hours and cultured for 2 hours in Ham's F-12 (18% PBS) medium. The medium was replaced by Ham's F-12 (10% PBS) in the presence or absence of ADNF. After 72 hours of the transformation, cell mortality was measured by Trypan blue exclusion assay as previously reported (Hashimoto Y, et al., 2001, J Neurosci 21: 9235-9245; and Hashimoto Y, et al, 2001, Proc Natl Acad Sci USA 98: 6336-6341). […]
Intracellular signaling by ADNF was examined. F11 cells were transformed with pEF-BOS or SOD1 mutant (A4T-SOD1, G85R-SOD1, or G93R-SOD1) cDNA and reacted with 10 nM wortmannin (PI3 kinase inhibitor), 100 μM genistein (tyrosine kinase inhibitor), 50 μM PD98059 (MEK inhibitor), 20 μM SB203580 (p38 MAPK inhibitor), 1 μM AG490 (JAK kinase inhibitor), 5 μM KN93 (calcium/calmodulin-dependent kinase inhibitor), or 10 μM HA1004 (protein kinase A inhibitor) in the presence or absence of 100 nM ADNF. After 72 hours of the transformation, cell mortality was measured by Trypan blue exclusion assay.
The effect of KN93 on the neuroprotective action of ADNF was examined. […] After 72 hours of the transformation, cell mortality was measured by Trypan blue exclusion assay. […]

[2] = system: SOD1 proteins; assay: Immunoblot analysis of SOD1 protein expression in transformed cells; type: cell-based, mouse and rat/mouse hybrid; details: KN93 or KN92 treatment; F11 cells
Description: Immunoblot analysis was conducted according to the previous report (Hashimoto Y, et al., supra, p. 6336-6341). To examine the protein expression of wild-type or SOD1 mutant genes, lysates from the cells transfected with each SOD1 gene were subjected to SDS-PAGE (20 μg/lane). After electrical blotting to a PVDF membrane, the membrane was blocked by a typical method and reacted with an anti-SOD1 antibody and then with a 1:5000-diluted horseradish peroxidase-conjugated anti-mouse IgG antibody (Bio-Rad Lab. Hercules, Calif., USA). The antibody-reactive bands were detected by ECL (Amersham Pharmacia Biotech, Uppsala, Sweden).

[3] = system: F11 cells transformed with SOD1 mutant (A4T-SOD1, G85R-SOD1, G93R-SOD1) genes; assay: Neuronal cell death test, Trypan blue exclusion assay, F11 cells transformed with SOD1 mutant genes; type: cell-based, rat/mouse hybrid cell; details: 10 pM ADNF8, 72 hours
[4] = system: neuronal cell death caused by amyloid β; details: cited from earlier work
[5] = system: neuronal cell death induced by SOD1 mutant genes; details: Hashimoto et al.; cited from earlier work

N#C/C(=C/c1ccc(O)c(O)c1)C(=O)NCc1ccccc1 [AG490]
effect of kinase inhibitor on neuroprotective effect of ADNF [1]: not affected

NC(N)=NCCNS(=O)(=O)c1cccc2cnccc12 [HA1004]
effect of kinase inhibitor on neuroprotective effect of ADNF [1]: not affected

COc1ccc(S(=O)(=O)Nc2ccccc2CN(C)C/C=C/c2ccc(Cl)cc2)cc1 [KN92]
influence on ADNF activity ([1]; 5 μM KN92, 100 fM ADNF): did not influence ADNF activity
protein expression of SOD1 mutant detected by immunoblot [2]: not affected

COc1ccc(S(=O)(=O)N(CCO)c2ccccc2CN(C)C/C=C/c2ccc(Cl)cc2)cc1 [KN93]
inhibition of neuroprotective action of ADNF ([1]; 50 nM KN93, 100 fM ADNF): partially inhibited
effect of kinase inhibitor on neuroprotective effect of ADNF [1]: inhibited
inhibition of neuroprotective action of ADNF ([1]; 1 μM KN93, 100 fM ADNF): almost completely inhibited
influence on cell mortality at the control level ([1]; KN93 at any of the concentrations (10 nM to 5 μM)): no influence
protein expression of SOD1 mutant detected by immunoblot [2]: not affected

COc1cccc(-c2cc(=O)c3ccccc3o2)c1N [PD98059]
effect of kinase inhibitor on neuroprotective effect of ADNF [1]: not affected

C[S+]([O-])c1ccc(-c2nc(-c3ccncc3)c(-c3ccc(F)cc3)[nH]2)cc1 (stereo not shown) [SB203580]
effect of kinase inhibitor on neuroprotective effect of ADNF [1]: not affected

O=c1c(-c2ccc(O)cc2)coc2cc(O)cc(O)c12 [genistein]
effect of kinase inhibitor on neuroprotective effect of ADNF [1]: inhibited

ALLRSIPA [ADNF8, ADNF which lost one N-terminal amino acid residue]
effectiveness relative to ADNF (fold less) ([1]; inhibition of neuronal cell death caused by SOD1 mutant genes): 100 fold
inhibition of cell death caused by G93R-SOD1 [3]: completely inhibited cell death
effect against neuronal cell death caused by amyloid β or TTX ([4]; Brenneman et al. 1998): totally ineffective

IPALDSLKPANEDQKIGIEI [IPAL peptide]
influence on cell death caused by SOD1 mutant genes ([1]; 10 μM IPAL peptide): did not influence the cell death caused by the SOD1 mutant genes
influence on cell death at the control level ([1]; 10 μM IPAL peptide itself, pEF-BOS): did not influence the cell death at the control level
effect on inhibitory activity of ADNF against cell death caused by SOD1 mutant genes ([1]; 10 μM IPAL peptide, 100 fM ADNF, 72 hours): did not inhibit the inhibitory activity of ADNF
effect on protective effect of ADNF on cell death induced by amyloid β ([4]; Zamostiano et al. 1999): inhibit the protective effect of ADNF

S14G Humanin (MAPRGFSCLLLLTGEIDLPVKRRA; Humanin; UniProt Q8IVG9 1-24, looked up, variant S14G) [HNG, comparison peptide reported to prevent Alzheimer's disease-associated neuronal cell death]
cell mortality induced by SOD1 mutant genes ([1]; 10 nM HNG, A4T-, G85R-, G93R-SOD1, 72 hours): could not reduce the cell death induced by the SOD1 mutant genes
neuronal cell death caused by some Alzheimer's disease-associated disorders ([4]; Hashimoto et al.): prevent neuronal cell death
neuronal cell death induced by SOD1 mutant genes [5]: fail to prevent neuronal cell death
